Patent US4833134A, “Cephem compounds” (Takeda Chemical Industries, Ltd., priority 1986, dated 1989)
Counter-ions that a name gives are not always drawn.

Assays:
[1] = system: Staphylococcus aureus 1840; assay: MIC (minimum inhibitory concentration), agar dilution method; format: cell-based; settings: trypticase soy agar, ca. 10^8 CFU/ml, 37° C., 18 hours
Description: (§1) The MIC value of the test compound was determined by agar dilution method. More specifically, 1.0 ml of an aqueous solution of the test compound diluted serially was poured into a petri dish, to which were added 9.0 ml of trypticase soy agar, followed by mixing. On the mixed agar plate was spread a suspension of the test microorganism (ca. 10^8 CFU/ml), which was incubated at 37° C. for 18 hours. The lowest concentration of the test compound completely inhibiting the growth of the test microorganism was expressed by MIC (minimum inhibitory concentration).
(1) Staphylococcus aureus 1840

Escherichia coli T7 = assay: as above; format: cell-based; settings: trypticase soy agar, ca. 10^8 CFU/ml, 37° C., 18 hours
Description: as §1

CCON=C(C(=O)NC1C(=O)N2C(C(=O)[O-])=C(C[n+]3ccc(SCCCN)cc3)CSC12)c1csc(N)n1 (stereo not drawn) [Example 2, 7β-[2-(2-aminothiazol-4-yl)-(Z)-2-ethoxyiminoacetamido]-3-{[4-(3-aminopropylthio)-1-pyridinium]methyl}-3-cephem-4-carboxylate hydrochloride]
MIC [1]: 0.78 µg/mL
MIC (Escherichia coli T7): 0.2 µg/mL
